This experiment has as its target T1, N-acylethanolamine acid amidase (NAAA) (Homo sapiens, UniProt Q02083).
T1 construct: purified human NAAA
T1 sequence (Q02083 29-125): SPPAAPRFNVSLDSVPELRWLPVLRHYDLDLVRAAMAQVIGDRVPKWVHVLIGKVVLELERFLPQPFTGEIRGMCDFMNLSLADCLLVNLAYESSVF
T1 sequence (Q02083 126-359): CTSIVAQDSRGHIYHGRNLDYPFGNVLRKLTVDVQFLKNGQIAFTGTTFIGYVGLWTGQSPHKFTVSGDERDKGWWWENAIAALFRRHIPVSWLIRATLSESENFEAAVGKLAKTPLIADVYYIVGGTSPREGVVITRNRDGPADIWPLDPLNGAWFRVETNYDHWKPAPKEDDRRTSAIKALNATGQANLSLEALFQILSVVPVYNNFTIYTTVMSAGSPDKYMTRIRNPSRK
The experiment is described as follows: fluorogenic PAMCA hydrolysis assay with purified human NAAA, […] min preincubation, 8-point curve. In kind it is biochemical.

Molecules are shown by their SMILES.

In the case of `COc1ccc(-c2ccc(COC3CC(N=C=S)C3)nc2)cc1F` (stereo not shown) [AM11095], the IC50 is 20 nM.

The values above are taken from article PMC9789040, “Inhibition of triple negative breast cancer-associated inflammation and progression by N- acylethanolamine acid amide hydrolase (NAAA)” (Scientific Reports, 2022).
